Source: patent publication US20240409536A1, “COMPOUNDS AND METHODS FOR MODULATING SPLICING” (REMIX THERAPEUTICS INC., priority 2021, published 2024)

Assays:
[1] = tested on: HiBiT-tagged HTT protein; assay: HiBiT protein abundance assay, HTT (K562 HiBiT knock-in cells); type: cell-based, human; settings: 24 hours
How it was run: (§1)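 Luminescent readout of HiBiT-tagged endogenous protein after lysis, following 24 h compound exposure of knock-in K562 lines at 37 °C. Ten 3-fold concentrations from 10 μM final, DMSO ≤0.25%. Four-parameter logistic fit of normalized response gives concentration halving abundance (IC50).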

[2] = tested on: Target C mRNA; assay: Gene panel canonical junction qPCR assay, Target C CJ mRNA decrease; type: cell-based; settings: Homo sapiens, canonical junction qPCR, read-out: Target C IC50 (decrease in CJ mRNA levels)
How it was run: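 A673 or K562 cells were treated with compound, and lysates underwent cDNA synthesis and qPCR with a CY5 5′-nuclease probe or primer spanning the canonical exon junction. ΔCt versus GAPDH, GUSB or PPIA was normalized to DMSO (2^(−ΔΔCt)), converted to percentage response and fitted four-parameter logistic for IC50.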

[3] = tested on: K562 cells; assay: Cell Titer Glo 2.0 cell viability assay in K562 cells; settings: 72 hours
[4] = tested on: HiBiT-tagged MYB protein; assay: HiBiT protein abundance assay, MYB (K562 HiBiT knock-in cells); type: cell-based, human; settings: 24 hours
How it was run: as §1

[5] = tested on: Target C; assay: HiBiT protein abundance assay, Target C (K562 HiBiT knock-in cells); type: cell-based, human; settings: 24 hours
How it was run: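 Protein abundance read by HiBiT lytic luminescence after 24 h compound exposure (37 °C) of knock-in K562 cells, 10000 cells/well in IMDM+1% FBS. Dosing: 10 points, 3-fold, top 10 μM final, ≤0.25% DMSO. Four-parameter logistic fit gave concentration reducing abundance to 50% of untreated control.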

Structure (SMILES) | IC50 [1] | IC50 [2] | Viability [3] | IC50 [4] | IC50 [5]
COc1cnc2c(N3CCC(N(C)C)CC3)ccc(C(=O)Nc3cc(F)c4nc(C)cn4c3)c2n1 [Compound 206, 8-[4-(dimethylamino)piperidin-1-yl]-N-{8-fluoro-2-methylimidazo[1,2-a]pyridin-6-yl}-3-methoxyquinoxaline-5-carboxamide; trifluoroacetic acid] | 100 to 1000 nM | 100 to 1000 nM | B (B represents 100-1000 nM) | < 100 nM | 100 to 1000 nM
COc1cnc2c(N3CCNCC3)ccc(C(=O)Nc3cc(F)c4nc(C)cn4c3)c2n1 [Compound 207, N-{8-fluoro-2-methylimidazo[1,2-a]pyridin-6-yl}-3-methoxy-8-(piperazin-1-yl)quinoxaline-5-carboxamide; bis(trifluoroacetic acid)] | 100 to 1000 nM | > 10000 nM | B (B represents 100-1000 nM) | < 100 nM | 1000 to 10000 nM
Cc1cnc2c(C(=O)Nc3cc(F)c4nc(C)cn4c3)ccc(N3CCC(N(C)C)CC3)c2n1 [Compound 208, 8-[4-(dimethylamino)piperidin-1-yl]-N-{8-fluoro-2-methylimidazo[1,2-a]pyridin-6-yl}-2-methylquinoxaline-5-carboxamide; bis(trifluoroacetic acid)] | 1000 to 10000 nM | > 10000 nM | A (A represents <100 nM) | < 100 nM | 1000 to 10000 nM
Cc1ccc2c(N3C[C@@H](C)N[C@@H](C)C3)ccc(C(=O)Nc3cc(F)c4nc(C)cn4c3)c2n1 [Compound 214, 5-[(3R,5S)-3,5-dimethylpiperazin-1-yl]-N-{8-fluoro-2-methylimidazo[1,2-a]pyridin-6-yl}-2-methylquinoline-8-carboxamide] | 1000 to 10000 nM | 1000 to 10000 nM | B (B represents 100-1000 nM) | < 100 nM | 1000 to 10000 nM
Cc1ccc2c(N3CCC(N(C)C)CC3)ccc(C(=O)Nc3cc(F)c4nc(C)cn4c3)c2n1 [Compound 215, 5-[4-(dimethylamino)piperidin-1-yl]-N-{8-fluoro-2-methylimidazo[1,2-a]pyridin-6-yl}-2-methylquinoline-8-carboxamide] | 1000 to 10000 nM | 1000 to 10000 nM | B (B represents 100-1000 nM) | < 100 nM | 1000 to 10000 nM
Cc1cnc2c(N3C[C@@H](C)N[C@@H](C)C3)ccc(C(=O)Nc3cc(F)c4nc(C)cn4c3)c2n1 [Compound 216, 8-((3R,5S)-3,5-dimethylpiperazin-1-yl)-N-{8-fluoro-2-methylimidazo[1,2-a]pyridin-6-yl}-3-methylquinoxaline-5-carboxamide] | 1000 to 10000 nM | > 10000 nM | C (C represents 1000-9999 nM) | < 100 nM | 1000 to 10000 nM
Cc1cn2cc(NC(=O)c3ccc(N4CCNC5(CC5)C4)c4nccnc34)cc(F)c2n1 [Compound 218, 8-{4,7-diazaspiro[2.5]octan-7-yl}-N-{8-fluoro-2-methylimidazo[1,2-a]pyridin-6-yl}quinoxaline-5-carboxamide] | 1000 to 10000 nM | > 10000 nM | B (B represents 100-1000 nM) | < 100 nM | 1000 to 10000 nM
Cc1cn2cc(NC(=O)c3ccc(N4CC(C)(C)NC(C)(C)C4)c4nccnc34)cc(F)c2n1 [Compound 219, N-{8-fluoro-2-methylimidazo[1,2-a]pyridin-6-yl}-8-(3,3,5,5-tetramethylpiperazin-1-yl)quinoxaline-5-carboxamide] | 1000 to 10000 nM | 1000 to 10000 nM | A (A represents <100 nM) | < 100 nM | 1000 to 10000 nM
Cc1cn2cc(NC(=O)c3ccc(N4CCNC(C)(C)C4)c4nccnc34)cc(F)c2n1 [Compound 220, 8-(3,3-dimethylpiperazin-1-yl)-N-{8-fluoro-2-methylimidazo[1,2-a]pyridin-6-yl}quinoxaline-5-carboxamide] | 1000 to 10000 nM | 1000 to 10000 nM | A (A represents <100 nM) | < 100 nM | 1000 to 10000 nM
CCNC1CCN(c2ccc(C(=O)Nc3cc(F)c4nc(C)sc4c3)c3nnccc23)CC1 [Compound 221, 5-[4-(ethylamino)piperidin-1-yl]-N-(4-fluoro-2-methyl-1,3-benzothiazol-6-yl)cinnoline-8-carboxamide] | 1000 to 10000 nM | 1000 to 10000 nM | B (B represents 100-1000 nM) | 100 to 1000 nM | 1000 to 10000 nM
COc1cnc2c(C(=O)Nc3cc(F)c4nc(C)cn4c3)ccc(N3C[C@@H](C)N[C@@H](C)C3)c2n1 [Compound 223] | 100 to 1000 nM | 100 to 1000 nM | B (B represents 100-1000 nM) | < 100 nM | 100 to 1000 nM
COc1cnc2c(C(=O)Nc3cc(F)c4nc(C)cn4c3)ccc(N3CCNCC3)c2n1 [Compound 225, N-{8-fluoro-2-methylimidazo[1,2-a]pyridin-6-yl}-2-methoxy-8-(piperazin-1-yl)quinoxaline-5-carboxamide] | > 10000 nM | > 10000 nM | C (C represents 1000-9999 nM) | < 100 nM | > 10000 nM
Cc1cn2cc(NC(=O)c3ccc(N4CCN(CCF)C5(CC5)C4)c4nccnc34)cc(F)c2n1 [Compound 370] | > 10000 nM | > 10000 nM | D (D represents greater than 10 μM in K562 cells) | 1000 to 10000 nM | > 10000 nM
Cc1cn2cc(NC(=O)c3ccc(C4CCNCC4)c4nccnc34)cc(F)c2n1 [Compound 371] | 100 to 1000 nM | 1000 to 10000 nM | A (A represents <100 nM) | 100 to 1000 nM | 100 to 1000 nM
Cc1cn2cc(NC(=O)c3ccc(N4CCNC5(COC5)C4)c4nccnc34)cc(F)c2n1 [Compound 372] | > 10000 nM | > 10000 nM | C (C represents 1000-9999 nM) | 1000 to 10000 nM | > 10000 nM
Cc1cn2cc(NC(=O)c3ccc(N4CCNC5(CCOC5)C4)c4nccnc34)cc(F)c2n1 (stereo not drawn) [Compound 373] | 1000 to 10000 nM | > 10000 nM | B (B represents 100-1000 nM) | 100 to 1000 nM | 1000 to 10000 nM
Cc1cn2cc(NC(=O)c3ccc(N4CCNC5(CCOCC5)C4)c4nccnc34)cc(F)c2n1 [Compound 374] | 1000 to 10000 nM | 1000 to 10000 nM | B (B represents 100-1000 nM) | 100 to 1000 nM | 1000 to 10000 nM
Cc1cn2cc(NC(=O)c3ccc(C4CCNC5(CC5)C4)c4nccnc34)cc(F)c2n1 (stereo not drawn) [Compound 375] | 1000 to 10000 nM | 1000 to 10000 nM | B (B represents 100-1000 nM) | 100 to 1000 nM | 1000 to 10000 nM
Cc1cn2cc(NC(=O)c3ccc(N4C[C@@H](C)NC5(CC5)C4)c4nccnc34)cc(F)c2n1 [Compound 376] | 1000 to 10000 nM | > 10000 nM | B (B represents 100-1000 nM) | 100 to 1000 nM | > 10000 nM
Cc1cn2cc(NC(=O)c3ccc(N4C[C@H](C)NC5(CC5)C4)c4nccnc34)cc(F)c2n1 [Compound 377] | 1000 to 10000 nM | > 10000 nM | B (B represents 100-1000 nM) | 100 to 1000 nM | 1000 to 10000 nM
COc1ncc2c(N3C[C@@H](C)N[C@@H](C)C3)ccc(C(=O)Nc3cn4cc(C)nc4c(OC)n3)c2n1 [Compound 378] | 100 to 1000 nM | 100 to 1000 nM | A (A represents <100 nM) | < 100 nM | 100 to 1000 nM
